# Results taken from ChEMBL document CHEMBL5360533, “Targeting ecto-5'-nucleotidase: A comprehensive review into small molecule inhibitors and expression modulators” (Eur J Med Chem, 2023).
# Legend:
# 5'-nucleotidase [1] = molecular target: T1, 5'-nucleotidase (Homo sapiens, UniProt P21589); test: Inhibition of human recombinant CD73 in mouse 4T1 cells at 12.5 ug/ml incubated for 24 hrs by Western blot analysis relative to control; format: cell-based; details: dose 12.5 µg/ml
# 5'-nucleotidase [2] = molecular target: T1, 5'-nucleotidase; test: Inhibition of human recombinant CD73 in MDA-MB-231 cells at 12.5 ug/ml incubated for 24 hrs by Western blot analysis relative to control; format: cell-based; details: dose 12.5 µg/ml
# HeLa [3] = test: Cytotoxicity against human HeLa cells; format: functional, cell-based
# 5'-nucleotidase [4] = molecular target: T1, 5'-nucleotidase; test: Inhibition of human N-terminal Ecto-5'-nucleotidase
# 5'-nucleotidase [5] = molecular target: T2, 5'-nucleotidase (Rattus norvegicus, UniProt P21588); test: Inhibition of rat Ecto-5'-nucleotidase
# T2 sequence (P21588 whole entry): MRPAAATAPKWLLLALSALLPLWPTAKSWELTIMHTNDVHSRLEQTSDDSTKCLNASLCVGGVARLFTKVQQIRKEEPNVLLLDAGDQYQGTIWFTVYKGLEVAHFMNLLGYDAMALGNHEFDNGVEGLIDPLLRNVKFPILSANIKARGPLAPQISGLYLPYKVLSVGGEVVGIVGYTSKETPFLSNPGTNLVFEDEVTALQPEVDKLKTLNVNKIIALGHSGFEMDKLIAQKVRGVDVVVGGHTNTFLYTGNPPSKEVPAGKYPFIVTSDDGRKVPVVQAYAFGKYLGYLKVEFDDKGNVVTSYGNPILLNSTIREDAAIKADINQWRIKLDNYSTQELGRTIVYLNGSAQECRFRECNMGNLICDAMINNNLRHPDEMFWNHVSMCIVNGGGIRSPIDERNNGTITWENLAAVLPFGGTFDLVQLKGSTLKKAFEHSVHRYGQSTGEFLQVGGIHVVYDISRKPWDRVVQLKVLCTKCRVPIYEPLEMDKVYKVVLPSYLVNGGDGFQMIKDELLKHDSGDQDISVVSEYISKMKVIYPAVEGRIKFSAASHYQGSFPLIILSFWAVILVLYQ
# [6] = Cytotoxicity against hamster BHK-21 cells assessed as inhibition of cell viability at 100 uM measured after 24 hrs by MTT assay; format: toxicity, cell-based, Mesocricetus auratus; details: read-out: INH
# HeLa [7] = test: Cytotoxicity against human HeLa cells assessed as inhibition of cell viability at 100 uM measured after 24 hrs by MTT assay; format: functional
# 5'-nucleotidase [8] = molecular target: T3, 5'-nucleotidase (Mus musculus, UniProt Q61503); test: Inhibition of mouse Ecto-5'-nucleotidase
# T3 sequence (Q61503 whole entry): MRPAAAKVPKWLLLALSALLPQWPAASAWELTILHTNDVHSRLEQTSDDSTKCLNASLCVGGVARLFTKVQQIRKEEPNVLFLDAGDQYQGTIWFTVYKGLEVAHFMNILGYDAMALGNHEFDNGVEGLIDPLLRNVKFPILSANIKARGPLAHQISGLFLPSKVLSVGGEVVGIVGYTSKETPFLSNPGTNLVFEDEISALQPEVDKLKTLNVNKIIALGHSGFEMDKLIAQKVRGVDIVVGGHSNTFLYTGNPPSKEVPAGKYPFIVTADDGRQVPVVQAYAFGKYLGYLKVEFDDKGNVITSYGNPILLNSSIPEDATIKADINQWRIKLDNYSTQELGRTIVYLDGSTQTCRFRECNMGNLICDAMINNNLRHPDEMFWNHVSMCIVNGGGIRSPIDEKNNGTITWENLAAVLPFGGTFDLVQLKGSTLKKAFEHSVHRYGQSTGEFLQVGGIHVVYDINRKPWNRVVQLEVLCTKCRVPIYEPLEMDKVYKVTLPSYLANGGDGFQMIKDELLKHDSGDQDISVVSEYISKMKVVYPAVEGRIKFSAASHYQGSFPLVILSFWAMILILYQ
# 5'-nucleotidase [9] = molecular target: T1, 5'-nucleotidase; test: Inhibition of human CD73 expressed in A-375 cells; format: cell-based
# 5'-nucleotidase [10] = molecular target: T1, 5'-nucleotidase; test: Inhibition of human CD73
# 5'-nucleotidase [11] = molecular target: T1, 5'-nucleotidase; test: Inhibition of human recombinant CD73
# 5'-nucleotidase [12] = molecular target: T1, 5'-nucleotidase; test: Inhibition of human recombinant Ecto-5'-nucleotidase
# 5'-nucleotidase [13] = molecular target: T1, 5'-nucleotidase; test: Inhibition of human Ecto-5'-nucleotidase in rat C6 cells at 200 uM relative to control; format: cell-based
# 5'-nucleotidase [14] = molecular target: T1, 5'-nucleotidase; test: Inhibition of human Ecto-5'-nucleotidase in rat C6 cells at 100 uM relative to control; format: cell-based
# [15] = molecular target: T4, Alkaline phosphatase, tissue-nonspecific isozyme (Homo sapiens, UniProt P05186); test: Inhibition of human TNAP
# T4 sequence (P05186 whole entry): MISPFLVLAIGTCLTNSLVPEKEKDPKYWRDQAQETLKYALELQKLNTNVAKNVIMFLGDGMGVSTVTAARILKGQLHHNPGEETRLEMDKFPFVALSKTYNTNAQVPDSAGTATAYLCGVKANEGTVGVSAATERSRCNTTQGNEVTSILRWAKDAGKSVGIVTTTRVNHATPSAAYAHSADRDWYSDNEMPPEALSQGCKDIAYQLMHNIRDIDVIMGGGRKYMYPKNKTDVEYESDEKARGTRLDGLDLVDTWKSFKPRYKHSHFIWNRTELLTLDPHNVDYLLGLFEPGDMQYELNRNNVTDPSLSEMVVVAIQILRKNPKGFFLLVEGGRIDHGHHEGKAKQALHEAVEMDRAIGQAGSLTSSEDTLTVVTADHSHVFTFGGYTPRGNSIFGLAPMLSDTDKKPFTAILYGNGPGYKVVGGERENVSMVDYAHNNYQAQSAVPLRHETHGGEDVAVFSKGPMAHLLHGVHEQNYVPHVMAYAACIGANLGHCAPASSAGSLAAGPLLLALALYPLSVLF
# 5'-nucleotidase [16] = molecular target: T1, 5'-nucleotidase; test: Inhibition of N-terminal human Ecto-5'-nucleotidase at 250 uM relative to control
# 5'-nucleotidase [17] = molecular target: T1, 5'-nucleotidase; test: Inhibition of recombinant CD73 (unknown origin)
# 5'-nucleotidase [18] = molecular target: T1, 5'-nucleotidase; test: Binding affinity to human recombinant Ecto-5'-nucleotidase assessed as inhibition constant
# Trichomonas vaginalis = test: Antiprotozoal activity against Trichomonas vaginalis ATCC 30236 assessed as parasitic growth inhibition measured after 24 hrs by cytometry analysis; format: functional, organism-based; details: ATCC 30236, 24 h
# T1 sequence (P21589 whole entry): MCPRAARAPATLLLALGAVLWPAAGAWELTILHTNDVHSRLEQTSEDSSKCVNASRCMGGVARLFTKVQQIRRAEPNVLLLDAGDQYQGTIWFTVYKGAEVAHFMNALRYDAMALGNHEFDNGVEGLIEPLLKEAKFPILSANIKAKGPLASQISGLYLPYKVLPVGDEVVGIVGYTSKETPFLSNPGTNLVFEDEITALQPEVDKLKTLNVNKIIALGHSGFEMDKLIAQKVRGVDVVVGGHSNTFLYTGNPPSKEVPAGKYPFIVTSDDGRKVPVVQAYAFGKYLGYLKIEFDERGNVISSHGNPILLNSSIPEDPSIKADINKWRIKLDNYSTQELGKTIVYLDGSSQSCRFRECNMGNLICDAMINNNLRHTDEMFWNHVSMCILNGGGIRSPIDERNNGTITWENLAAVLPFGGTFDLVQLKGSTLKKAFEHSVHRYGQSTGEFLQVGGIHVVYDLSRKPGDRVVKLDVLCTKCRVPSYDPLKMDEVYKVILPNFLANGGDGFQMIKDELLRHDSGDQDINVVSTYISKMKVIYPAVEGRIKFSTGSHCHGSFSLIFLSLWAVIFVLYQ
smiles,measurement,setting,value
C=C[C@]1(C)C[C@@H](OC(=O)CSCCN(CC)CC)[C@]2(C)[C@H](C)CC[C@]3(CCC(=O)[C@H]32)[C@@H](C)[C@@H]1O,inhibition,5'-nucleotidase [1],31.4%
same,inhibition,5'-nucleotidase [2],53.9%
Cc1ccc(S(=O)(=O)N/N=C/c2coc3ccc(Br)cc3c2=O)cc1,IC50,HeLa [3],30200 nM
Cc1ccc(-n2cc(C#N)c3cc4c(=O)oc5ccc(C)cc5c4nc32)cc1,IC50,5'-nucleotidase [4],160 nM
Cc1nn(-c2ccccc2)c2nc(-c3ccccc3O)ccc12,IC50,5'-nucleotidase [4],25800 nM
same,IC50,5'-nucleotidase [5],640 nM
O=C1CNC(=S)N1/N=C/c1ccc(Br)s1,"cytotoxicity at 24 h, 100 µM",[6],4.31%
same,inhibition at 100 µM,HeLa [7],4.31%
O=C(N/N=C/c1ccc(Br)cc1)c1ccccc1,IC50,5'-nucleotidase [8],230 nM
O=c1c(O)c(-c2ccc(O)c(O)c2)oc2cc(O)cc(O)c12 [QUERCETIN],IC50,5'-nucleotidase [4],45300 nM
C=Cn1cc[n+](Cc2ccc(O)c(C=O)c2)c1,IC50,5'-nucleotidase [4],1140 nM
same,IC50,5'-nucleotidase [8],1930 nM
COc1ccc(/C=N/NC(=O)c2ccccc2)cc1,IC50,5'-nucleotidase [8],13800 nM
O=P(O)(O)COC[C@H]1O[C@@H](n2ncc3c(N4CC5(CCc6ccccc65)C4)nc(Cl)nc32)[C@H](O)[C@@H]1O,IC50,5'-nucleotidase [9],0.051 nM
same,IC50,5'-nucleotidase [10],0.05 nM
Cc1cc2c(cc1O)c(=O)oc1cc(/C=C/c3ccc(O)c(O)c3)oc(=O)c12,IC50,5'-nucleotidase [11],35100 nM
CC(=O)c1cc2ccccc2oc1=O [3-ACETYLCOUMARIN],IC50,5'-nucleotidase [12],4660 nM
COc1ccc(CN(C)C(=O)Nc2sc3c(c2C(=O)OC(C)(C)C)CCN(Cc2ccccc2)C3)cc1OC,IC50,5'-nucleotidase [4],45800 nM
CC(=O)c1sc(N/N=C/c2ccc[nH]2)nc1C,IC50,5'-nucleotidase [4],320 nM
CCc1ccc2occ(/C=N/NS(=O)(=O)c3ccc(C)cc3)c(=O)c2c1,IC50,HeLa [3],86000 nM
CCOC(=O)C1=C(C)NC(=S)NC1c1ccc(N(C)C)cc1 (stereo not given),inhibition,5'-nucleotidase [13],48%
same,inhibition,5'-nucleotidase [14],36%
Nc1ncnc2c1ncn2[C@@H]1O[C@H](COC(C(=O)O)P(=O)(O)O)[C@@H](O)[C@H]1O (stereo not given in full),IC50,5'-nucleotidase [11],19000 nM
CC1=CC(=O)C2(C=C(c3cc4oc(=O)c5cc(O)c(O)cc5c4c(=O)o3)c3cc(O)c(O)cc32)O1 (stereo not given),IC50,5'-nucleotidase [11],6720 nM
COc1cc(/C=N/N2C(=O)CNC2=S)cc(OC)c1OC,"cytotoxicity at 24 h, 100 µM",[6],4.31%
same,inhibition at 100 µM,HeLa [7],4.31%
CC(=O)c1sc(N/N=C/c2cc3ccccc3[nH]2)nc1C,IC50,5'-nucleotidase [4],320 nM
Fc1cccc(-c2ccc3nc(C(F)(F)F)cc(Cl)c3c2)c1,IC50,5'-nucleotidase [4],1780 nM
C/C(=N\NS(=O)(=O)c1ccccc1)c1cc2ccccc2oc1=O,IC50,5'-nucleotidase [12],290 nM
O=c1oc(/C=C/c2ccc(O)c(O)c2)cc2oc3cc(O)c(O)cc3c12 [PHELLIBAUMIN A],IC50,5'-nucleotidase [11],17100 nM
Fc1cccc(-c2ccc3nc(C(F)(F)F)cc(-c4cccc(F)c4)c3c2)c1,IC50,5'-nucleotidase [4],1190 nM
C/C(=N\NC(=O)c1ccncc1)N1N=C(c2ccc(F)cc2)CC1c1ccccc1 (stereo not given),IC50,5'-nucleotidase [8],190 nM
COc1cccc(COc2ccc(/C=N/N3C(=O)CNC3=S)cc2)c1,"cytotoxicity at 24 h, 100 µM",[6],4.31%
same,IC50,5'-nucleotidase [4],280 nM
same,inhibition at 100 µM,HeLa [7],4.31%
O=c1oc2ccccc2cc1-c1csc(/N=C/c2cccc([N+](=O)[O-])c2)n1,IC50,[15],250 nM
O=C1c2cc3c(cc2[C@@H]2[C@H](O)[C@@H](O)C=C4CCN1[C@H]42)OCO3,inhibition,5'-nucleotidase [16],88%
COc1ccc(-c2ccc3nc(C(F)(F)F)cc(-c4ccc(OC)cc4)c3c2)cc1,IC50,5'-nucleotidase [4],1130 nM
O=P(O)(O)CP(=O)(O)C[C@@H](O)[C@H]1O[C@@H](n2cc(-c3ccc4ccccc4c3)nn2)[C@H](O)[C@@H]1O,IC50,5'-nucleotidase [17],860 nM
O=C(CSc1nnc(-c2c[nH]c3ccccc23)n1Cc1ccccc1)NO,IC50,5'-nucleotidase [12],6200 nM
FC(F)(F)c1cc(Cl)c2cc(Br)ccc2n1,IC50,5'-nucleotidase [4],1720 nM
COc1c2c(cc3c1C(=O)O[C@H]1[C@@H]3[C@H]3C(=C[C@@H]1O)CCN3C)OCO2,inhibition,5'-nucleotidase [16],59%
O=S1(=O)NC(Nc2cccc3[nH]ncc23)=Nc2c1cc(Cl)c(F)c2O,IC50,5'-nucleotidase [11],15 nM
O=C(Nc1ccncc1)c1ccc(Cl)cc1,IC50,5'-nucleotidase [4],290 nM
Cc1ccc(C(=O)N2CCc3cc(-c4nc(NC(=O)CN5CCc6ccccc6C5)sc4C)ccc32)cc1,Ki,5'-nucleotidase [18],530 nM
CCCC(=O)c1c(O)c2c(c(CC3=C(O)C(C)(CC=C(C)C)C(=O)C(C(=O)C(C)C)=C3O)c1O)OC(C)(C)C=C2 (stereo not given),IC50,Trichomonas vaginalis,38000 nM
COc1cc(/C=N/NC(=O)c2ccccc2)ccc1O,IC50,5'-nucleotidase [8],680 nM
O=C(N/N=C/c1cccnc1)c1ccccc1,IC50,5'-nucleotidase [8],210 nM
CC(=O)c1sc(N/N=C/c2ccc(N(C)C)cc2)nc1C,IC50,5'-nucleotidase [4],320 nM
O=P(O)(O)CP(=O)(O)C[C@@H](O)[C@H]1O[C@@H](n2cc(-c3cc(C(F)(F)F)cc(C(F)(F)F)c3)nn2)[C@H](O)[C@@H]1O,IC50,5'-nucleotidase [17],4800 nM
